From patent US8129527B2, “Analogs of dehydrophenylahistins and their therapeutic use” (Nereus Pharmacuticals, Inc., priority 2006, dated 2012)
Read-outs that look alike come from different tables or passages of the source.

Legend:
[1] = system: HT-29 human colorectal carcinoma cells; assay: Cell growth inhibition assay, resazurin (Table 3.2); assay type: cell-based
Experimental: The cytotoxic effects of various derivatives of dehydrophenylahistin against HT-29 human colorectal carcinoma cells were determined.
HT-29 cells (ATCC; HTB-38) were maintained in ATCC recommended culture media and cultured in an incubator at 37° C. in 5% CO2 and 95% humidified air.
For cell growth inhibition assays, HT-29 cells were seeded at 5×10^3 cells/well in 90 μl complete media into a Corning 3904 black-walled, clear-bottom tissue culture plates and the plates were incubated overnight to allow cells to establish and enter log phase growth. 20 mM stock solutions of compounds were prepared in 100% DMSO and stored at −80° C. 10× concentrated serial dilutions of the compounds were prepared in culture medium for final concentrations ranging from 20 μM to […]. Ten μl volumes of the 10× serial dilutions were added to the test wells in triplicate and the plates returned to the incubator for 48 hours. The final concentration of DMSO was 0.25% in all samples.
(§1) Following 48 hours of drug exposure, 10 μl of 0.2 mg/ml resazurin (obtained from Sigma-Aldrich Chemical Co.) in Mg^2+, Ca^2+ free phosphate buffered saline was added to each well and the plates were returned to the incubator for 3-4 hours. […] Resazurin dye in medium without cells was used to determine the background, which was subtracted from the data for all experimental wells.

HT-29 human colon cells = assay: Tumor cytotoxicity assay, resazurin fluorescence, 48 h (Example 6); assay type: cell-based; settings: for EC50: Homo sapiens; for activity compared with tBu-dehydroPLH / cytotoxic activity against HT-29 cells: in words
HT-29 cells = assay: Additional cytotoxicity assays, resazurin (Table 3.1); assay type: cell-based, human; settings: Table 3.1; for EC50: Homo sapiens, HT-29, read-out: EC50 (M) Mean
Experimental: 10× concentrated serial dilutions of the two compounds were prepared in appropriate culture medium for final concentrations ranging from 2.0×10^−5 M to 2.0×10^−10 M. Ten μl volumes of the 10× serial dilutions were added to the test wells in triplicate and the plates returned to the incubator for 48 hours.
as §1, with “exposure” for “exposure,”, “PBS” for “phosphate buffered saline”, “dye” for “dye in medium”, “wells. The data were analyzed using Prism software (GraphPad Software).” for “wells.”
Additional cytotoxicity assays were performed as described above under this example, using Resazurin fluorescence as an indicator of cell viability.

[2] = Table 3.2, HT-29 cells, read-out: EC50 (M) Mean
[3] = Table 7, electron-withdrawing group, proliferation of HT-29 cells, read-out: EC50
[4] = HT-29, Table 3, read-out: EC50 (nM) HT-29
[5] = Table 8, electron-donating group, proliferation of HT-29 cells, read-out: EC50
[6] = Table 11, replacement with the heteroaryl ring, proliferation of HT-29 cells, read-out: EC50
[7] = HT-29, Table 5, synthetic potent dehydroPLH derivatives, read-out: EC50

## CC(C)(C)c1ocnc1/C=c1\[nH]c(=O)/c(=C\c2ccccc2)[nH]c1=O [Compound 2489, (E)-tBu-delta-PLH]
[1]; [2]
  EC50: 1.16e-07 M

## CC(C)(C)c1[nH]cnc1/C=c1\[nH]c(=O)/c(=C/c2ccc(C#N)cc2)[nH]c1=O [KPU-43, tBu-ΔPLH-p-CN]
HT-29 human colon cells; [3]
  EC50: > 20000 nM

## CCOc1cccc(/C=c2\[nH]c(=O)/c(=C/c3ncoc3C(C)(C)C)[nH]c2=O)c1 [Compound 2471, tBu-Oxadelta-PLH-m-OEt]
[1]; [2]
  EC50: 1.01e-07 M

## C=Cc1cccc(/C=c2\[nH]c(=O)/c(=C/c3ncoc3C(C)(C)C)[nH]c2=O)c1 [Compound 2482, tBu-Oxadelta-PLH-m-vinyl]
[1]; HT-29, read-out: EC50 (M) Mean
  EC50: 2.65e-08 M

## CC(C)(C)c1ocnc1/C=c1\[nH]c(=O)/c(=C/c2ccoc2)[nH]c1=O [Compound 2478, tBu-Oxadelta-PLH-3-furanyl]
[1]; [2]
  EC50: 5.37e-08 M

## CC(C)(C)c1[nH]cnc1/C=c1\[nH]c(=O)/c(=C/c2ccc3c(c2)OCO3)[nH]c1=O [KPU-22, tBu-ΔPLH-3,4-methylene-dioxy]
HT-29 human colon cells; [4]
  EC50: 82 nM
HT-29 human colon cells; [5]
  EC50: 82 nM

## CC(C)(C)c1ocnc1/C=c1\[nH]c(=O)/c(=C/c2cccc(Cl)c2)[nH]c1=O [Compound 2467, tBu-Oxadelta-PLH-3-Cl]
[1]; HT-29, read-out: EC50 (M) Mean
  EC50: 5.41e-08 M

## COc1ccc(O)c(/C=c2\[nH]c(=O)/c(=C/c3nc[nH]c3C(C)(C)C)[nH]c2=O)c1 [KPU-54, tBu-ΔPLH-2-OH-5-OMe]
HT-29 human colon cells; [5]
  EC50: > 20000 nM

## CC(C)(C)c1[nH]cnc1/C=c1\[nH]c(=O)/c(=C/c2cc(Cl)ccc2[N+](=O)[O-])[nH]c1=O [KPU-52, tBu-ΔPLH-2-NO2-5-Cl]
HT-29 human colon cells; [3]
  EC50: 110 nM

## CC(C)(C)c1ocnc1/C=c1\[nH]c(=O)/c(=C/c2cn(S(=O)(=O)c3ccccc3)c3ccccc23)[nH]c1=O [Compound 2507, tBu-oxadelta-PLH-1-(Ph-sulfo)-3-indole]
[1]; [2]
  EC50: > 6.32e-06 M

## Cc1[nH]cnc1/C=c1\[nH]c(=O)/c(=C/c2nc[nH]c2C(C)(C)C)[nH]c1=O [KPU-36, tBu-ΔPLH-5-Me-4-im]
HT-29 human colon cells; [6]
  EC50: 2790 nM

## CC(C)(C)c1ocnc1/C=c1\[nH]c(=O)/c(=C/c2cccs2)[nH]c1=O [Compound 2484, tBu-Oxadelta-PLH-2-thienyl]
[1]; HT-29, read-out: EC50 (M) Mean
  EC50: 1.05e-07 M

## CC(C)(C)c1ocnc1/C=c1\[nH]c(=O)/c(=C/c2ccccc2Cl)[nH]c1=O [Compound 2465, tBu-Oxadelta-PLH-2-Cl]
[1]; [2]
  EC50: 5.4e-08 M

## COc1ccc(F)c(/C=c2\[nH]c(=O)/c(=C/c3nc[nH]c3C(C)(C)C)[nH]c2=O)c1 [KPU-81, TBu-ΔPLH-2-F-5-OMe]
HT-29 human colon cells; [7]
  EC50: 19 nM
HT-29 human colon cells
  activity compared with tBu-dehydroPLH: higher activity than tBu-dehydroPLH

## CC(C)(C)c1ocnc1/C=c1\[nH]c(=O)/c(=C/c2ccsc2)[nH]c1=O [Compound 2487, tBu-Oxadelta-PLH-3-thienyl]
[1]; [2]
  EC50: 7.93e-08 M

## CC(C)(C)c1[nH]cnc1/C=c1\[nH]c(=O)/c(=C/c2cccc(OC(F)(F)F)c2)[nH]c1=O [KPU-80, TBu-ΔPLH-m-OCF3]
HT-29 human colon cells; [7]
  EC50: 13 nM
HT-29 human colon cells
  activity compared with tBu-dehydroPLH: higher activity than tBu-dehydroPLH

## COc1cc(/C=c2\[nH]c(=O)/c(=C/c3nc[nH]c3C(C)(C)C)[nH]c2=O)cc(OC)c1 [KPU-16, tBu-ΔPLH-3,5-diOMe]
HT-29 human colon cells; [4]
  EC50: 42 nM
HT-29 human colon cells; [7]
  EC50: 42 nM
HT-29 human colon cells
  cytotoxic activity against HT-29 cells: showed high activity

## CC(C)(C)c1ocnc1/C=c1\[nH]c(=O)/c(=C/c2cccc(C(=O)c3ccccc3)c2)[nH]c1=O [Compound 2512, tBu-oxadelta-PLH-3-benzoyl]
[1]; HT-29, read-out: EC50 (M) Mean
  EC50: 3.86e-09 M

## Cc1ccsc1/C=c1\[nH]c(=O)/c(=C/c2ncoc2C(C)(C)C)[nH]c1=O [Compound 2480, tBu-Oxadelta-PLH-3-Me-2-thienyl]
[1]; [2]
  EC50: 1.61e-07 M

## CC(C)(C)c1[nH]cnc1/C=c1\[nH]c(=O)/c(=C/c2ccccc2)[nH]c1=O [tBu-dehydrophenylahistin, 3-Z-Benzylidene-6-(5″-tert-butyl-1H-imidazol-4″-Z-ylmethylene)-piperazine-2,5-dione]
HT-29 human colon cells; Table 1 text
  greater cytotoxic activity in comparison with dehydrophenylahistin: ~4 times

## CC(C)(C)c1ocnc1/C=c1\[nH]c(=O)/c(=C/c2cc3ccccc3s2)[nH]c1=O [Compound 2510, tBu-oxadelta-PLH-2-benzothiophen]
[1]; HT-29, read-out: EC50 (M) Mean
  EC50: > 2e-05 M

## COc1ccc(/C=c2\[nH]c(=O)/c(=C/c3nc[nH]c3C(C)(C)C)[nH]c2=O)c(O)c1 [KPU-58, tBu-ΔPLH-2-OH-4-OMe]
HT-29 human colon cells; [5]
  EC50: > 20000 nM

## Cc1ccc(/C=c2\[nH]c(=O)/c(=C/c3nc[nH]c3C(C)(C)C)[nH]c2=O)s1 [KPU-27, tBu-ΔPLH-5-Me-2-thienyl]
HT-29 human colon cells; [4]
  EC50: 80 nM
HT-29 human colon cells; [6]
  EC50: 80 nM

## COc1ccc2ccccc2c1/C=c1\[nH]c(=O)/c(=C/c2ncoc2C(C)(C)C)[nH]c1=O [Compound 2498, tBu-oxadelta-PLH-2-OMe-1-naphth]
[1]; [2]
  EC50: 1.67e-06 M

## CCOc1ccc2ccccc2c1/C=c1\[nH]c(=O)/c(=C/c2ncoc2C(C)(C)C)[nH]c1=O [Compound 2497, tBu-oxadelta-PLH-2-OEt-1-naphth]
[1]; [2]
  EC50: 5.23e-06 M

## CC(C)(C)c1ocnc1/C=c1\[nH]c(=O)/c(=C/c2c3ccccc3cc3ccccc23)[nH]c1=O [Compound 2499, tBu-oxadelta-PLH-9-anth]
[1]; [2]
  EC50: > 6.32e-06 M

## CC(C)(C)c1ocnc1/C=C1\NC(=O)[C@H](Cc2ccccc2)NC1=O [Compound 2513, tBu-oxa-PLH]
[1]; [2]
  EC50: 9.24e-07 M

## Cc1ccsc1/C=c1\[nH]c(=O)/c(=C/c2nc[nH]c2C(C)(C)C)[nH]c1=O [KPU-29, tBu-ΔPLH-3-Me-2-thienyl]
HT-29 human colon cells; [4]
  EC50: 44 nM
HT-29 human colon cells; [7]
  EC50: 44 nM
HT-29 human colon cells
  cytotoxic activity against HT-29 cells: exhibited activity

## CC(C)(C)c1[nH]cnc1/C=c1\[nH]c(=O)/c(=C/c2cccc3c2OCO3)[nH]c1=O [KPU-30, tBu-ΔPLH-2,3-methylendioxy]
HT-29 human colon cells; [5]
  EC50: 477 nM

## COc1cccc(/C=c2\[nH]c(=O)/c(=C/c3nc[nH]c3C(C)(C)C)[nH]c2=O)c1O [KPU-23, tBu-ΔPLH-2-OH-3-OMe (o-vanillin)]
HT-29 human colon cells; [4]
  EC50: 5870 nM
HT-29 human colon cells; [5]
  EC50: 5870 nM

## Cc1cccc(/C=c2\[nH]c(=O)/c(=C/c3nc[nH]c3C(C)(C)C)[nH]c2=O)n1 [KPU-33, tBu-ΔPLH-3-Me-2-pyridyl]
HT-29 human colon cells; [6]
  EC50: > 20000 nM

## CC(C)(C)c1[nH]cnc1/C=c1\[nH]c(=O)/c(=C/c2cc([N+](=O)[O-])ccc2Cl)[nH]c1=O [KPU-21, tBu-ΔPLH-2Cl-5-NO2]
HT-29 human colon cells; [4]
  EC50: 51 nM
HT-29 human colon cells; [3]
  EC50: 51 nM

## COc1ccc(/C=c2\[nH]c(=O)/c(=C/c3nc[nH]c3C(C)(C)C)[nH]c2=O)cc1O [KPU-57, tBu-delta-PLH-3-OH-4-OMe]
HT-29 human colon cells; [5]
  EC50: > 20000 nM

## Cn1cccc1/C=c1\[nH]c(=O)/c(=C/c2nc[nH]c2C(C)(C)C)[nH]c1=O [KPU-63, tBu-ΔPLH-N-Me-2-pyrrole]
HT-29 human colon cells; [6]
  EC50: 105 nM

## Cc1cccc(/C=c2\[nH]c(=O)/c(=C/c3nc[nH]c3C(C)(C)C)[nH]c2=O)c1C [KPU-90, 3-{(Z)-1-[5-(tert-Butyl)-1H-4-imidazolyl]methylidene}-6-[(Z)-1-(2,3-dimethylphenyl)methylidene]-2,5-piperazinedione]
HT-29 human colon cells
  potency relative to dehydroPLH: 16 times
  potency relative to tBu-dehydroPLH: 4 times
HT-29 human colon cells; [7]
  EC50: 3 nM
HT-29 human colon cells; HT-29, text to Table 5, most potent compound, read-out: EC50 value
  EC50: 3 nM

## COc1cc(OC)c(/C=c2\[nH]c(=O)/c(=C/c3nc[nH]c3C(C)(C)C)[nH]c2=O)c(OC)c1 [KPU-45, tBu-ΔPLH-2,4,6-TriOMe]
HT-29 human colon cells
  cytotoxic activity against HT-29 cells: also showed activity

## COc1cccc2cc3c(=O)[nH]/c(=C\c4nc[nH]c4C(C)(C)C)c(=O)n3c12 [KPU-24, tBu-ΔPLH-cyclized-3-MeO]
HT-29 human colon cells; [4]
  EC50: 7040 nM
HT-29 human colon cells; Table 6, proliferation of HT-29 cells, read-out: EC50
  EC50: 7040 nM

## CC(C)(C)c1[nH]cnc1/C=c1\[nH]c(=O)/c(=C/c2ccc(Cl)s2)[nH]c1=O [KPU-61, tBu-ΔPLH-5-Cl-2-thionyl]
HT-29 human colon cells; HT-29, Table 11, replacement with the heteroaryl ring, proliferation of HT-29 cells
  EC50: 184 nM

## Cc1c(F)cccc1/C=c1\[nH]c(=O)/c(=C/c2nc[nH]c2C(C)(C)C)[nH]c1=O [Compound 2435, tBu-delta-PLH-2-Me-3-F]
HT-29 cells
  EC50: 3.34e-08 M
  % cytotox Mean: 86%

## CCc1ccc(/C=c2\[nH]c(=O)/c(=C/c3nc[nH]c3C(C)(C)C)[nH]c2=O)s1 [Compound 2424, tBu-delta-PLH-5-Et-2-thionyl]
HT-29 cells
  EC50: 1.32e-07 M
  % cytotox Mean: 87%

## C=CC(C)(C)c1[nH]cnc1/C=C1\N=C(OC)C(Cc2ccccc2)N=C1OC (racemic) [Compound 2354, D,L-bislactim-PLH]
HT-29 cells
  EC50: > 2e-05 M
  % cytotox Mean: 4%

## CC(C)(C)c1[nH]cnc1/C=c1\[nH]c(=O)/c(=C/c2ccc3c(c2)OCO3)[nH]c1=O [Compound 2372, tBu-delta-PLH-3,4-methylene-dioxy]
HT-29 cells
  EC50: 8.73e-08 M
  % cytotox Mean: 84%
